The text below walks through data of PubChem BioAssay (NCI).

“And” between values parts separate entries of the source, which are not always exact repeats. Equal entries are not always repeated.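 Compound exposure: 48 hours, 5 concentrations, 96-well plates. GI50 marks 50% less growth. TGI denotes the concentration required for complete inhibition of growth.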

Test in all cases: growth of human tumour cells (NCI), 48 h
The test system of assay [1] is LOX IMVI melanoma.
For assay [2], the system named is RXF 393 renal.
Assay [3] relates to ACHN renal.
Assay [4] concerns A549 NSCLC.
For assay [5], the system named is KM12 colon.
Assay [6] has as its system HOP-92 NSCLC.
The test system of assay [7] is U251 CNS.
The test system of assay [8] is UACC-257 melanoma.
Assay [9] deals with SNB-75 CNS.
Assay [10] has as its system CAKI-1 renal.

For the molecule `O=C1CCc2c(sc3[nH]c(=S)n(-c4cc(C(F)(F)F)cc(C(F)(F)F)c4)c(=O)c23)C1`, the GI50 is 0.392 µM in assay [1]; 0.392 µM in assay [2]; 0.344 µM in [3]; 0.707 µM in assay [4]; 0.344 µM in [5]; 0.205 µM in [6]. Also, the GI50 in [7] was 0.364 µM; in [8] it was 0.725 µM; in [9], 0.328 µM; in [10], 0.377 µM. Also, the TGI in [1] worked out at 5.62 µM; in [2], 5.16 µM; in [3], 1.31 µM; in assay [4], 11.3 µM; in [5], 1.36 µM; in assay [6], 0.692 µM. Further, the TGI came to 1.97 µM in [7], 4.6 µM in assay [8], 3.66 µM in assay [9] and 4.54 µM in assay [10].
Consider `C1=C(c2ccccc2)C(N2CCOCC2)Oc2ccccc21` (configuration not stated), for which the TGI in assay [1], in assay [2], in [3], in assay [4], in assay [5] and in assay [6] was more than 100 µM throughout. Moreover, the TGI in assay [7], in [8], in assay [9] and in assay [10] was more than 100 µM throughout.
Turning to `OCCCCC#Cc1ccccc1C#Cc1ccc(O)cc1`, the GI50 was 13.6 µM in assay [1]; 0.622 µM in assay [2]; 16.6 µM in assay [3]; 15.8 µM in assay [4]; 14.5 µM in assay [5]; 17.4 µM in [6]. Besides, the GI50 was 15 µM in [7], 18.5 µM in assay [8], 13.6 µM in assay [9] and 15.7 µM in [10]. For the same molecule, the TGI in assay [1] was determined as 27.7 µM; in assay [2], 22.4 µM; in assay [3] it was 31.2 µM; in assay [4], 30.8 µM; in assay [5], 30.9 µM; in [6] it was 36.2 µM. Further, the TGI in assay [7] was determined as 29.3 µM; in assay [8] it was 33.9 µM; in [9], 29.3 µM; in assay [10] it was 30.3 µM.
With `C/C(=C\c1ccn(-c2ccccc2N)n1)[C@@H]1C[C@@H]2O[C@]2(C)CCC[C@H](C)[C@H](O)[C@@H](C)C(=O)C(C)(C)[C@@H](O)CC(=O)O1`, the GI50 was 0.0331 µM in assay [1]; 0.0526 µM in assay [2]; 0.283 µM in assay [3]; 0.0372 µM in [4]; 0.0203 µM in assay [5]; 0.146 µM in assay [6]. Besides, the GI50 is 0.0348 µM in [7], 0.00907 µM in [9] and 0.242 µM in assay [10]. The TGI is more than 50 µM in assay [1]; 0.604 µM in assay [2]; more than 50 µM in [3]; more than 50 µM in assay [4]; more than 50 µM in assay [5]; more than 50 µM in assay [6]. Also, the TGI in [7] was more than 33.6 µM; in [8], more than 50 µM; in assay [9] it was 0.186 µM; in assay [10] it was more than 50 µM.
For `O=C1NC(N/N=C\C(O)C(O)C(O)C(O)CO)=N/C1=C/c1ccccc1` (configuration not stated), the GI50 in assay [1] is > 100 µM and 17.7 µM; in assay [2] it was > 100 µM and 21.7 µM; in [3], 80.6 µM and 14.7 µM and > 100 µM; in assay [4], > 100 µM and 19 µM; in assay [5], 41.6 µM and 16.2 µM and > 100 µM; in assay [6], 60.1 µM and 15.5 µM and > 100 µM. The GI50 was > 100 µM and 17.5 µM in [7]; > 100 µM and 19.9 µM in [8]; > 100 µM and 24.9 µM in assay [9]; > 100 µM and 19.4 µM in assay [10]. Besides, the TGI in assay [1] was > 100 µM and 36.4 µM; in assay [2] it was > 100 µM and 44 µM; in assay [3] it was > 100 µM and 28.1 µM; in assay [4], > 100 µM and 45.7 µM; in assay [5], > 100 µM and 36.7 µM; in assay [6], > 100 µM and 33.9 µM. For the same molecule, the TGI is > 100 µM and 42.8 µM in assay [7]; > 100 µM and 45 µM in assay [8]; > 100 µM and 54 µM in assay [9]; > 100 µM and 38.1 µM in assay [10].
Take `C=CO/N=[N+](\[O-])N(CC)CC`: the TGI in assay [1], in assay [2], in [3], in assay [4], in assay [5] and in [6] was more than 100 µM in each case. Besides, the TGI in [7], in assay [8], in [9] and in assay [10] was more than 100 µM throughout.
In the case of `O=C(O)C(Cc1cnc[nH]1)N1C(=O)c2ccccc2C1=O` (configuration not stated), the TGI in assay [1], in assay [2], in assay [3], in assay [4], in assay [5] and in assay [6] was more than 100 µM throughout. The TGI in assay [7], in assay [8], in assay [9] and in [10] was more than 100 µM throughout.
For `CCC(=O)N1C/C(=C/c2ccc(Cl)cc2)C(=O)/C(=C/c2ccc(Cl)cc2)C1`, the GI50 was 0.161 µM in assay [1]; 0.723 µM in [2]; 0.745 µM in assay [3]; 0.868 µM in assay [4]; 0.25 µM in assay [5]; 1.66 µM in [6]. The GI50 was 0.28 µM in [7], 1.64 µM in assay [8], 1.37 µM in assay [9] and 2.25 µM in assay [10]. In addition, the TGI was 0.354 µM in assay [1]; 2.08 µM in assay [2]; 1.98 µM in assay [3]; 4.14 µM in assay [4]; 0.665 µM in [5]; 4.18 µM in assay [6]. Also, the TGI in assay [7] is 0.897 µM; in assay [8], 3.24 µM; in [9], 3.1 µM; in [10], 7.85 µM.
Take `CC1=CC2C(C(O)CC3(C)C2CC(C)C32OCOC23COCO3)C2(C)C/C(=C/O)C(=O)C=C12` (configuration not stated): the GI50 in assay [1] was 1.75 µM; in assay [2] it was 1.81 µM; in assay [3], 1.85 µM; in assay [4] it was 3.02 µM; in assay [5] it was 2.39 µM; in [6], 1.78 µM. Further, the GI50 in assay [7] is 1.66 µM; in [8], 1.82 µM; in assay [9] it was 1.63 µM; in assay [10], 1.94 µM. In addition, the TGI was 3.31 µM in assay [1]; 3.31 µM in assay [2]; 3.45 µM in [3]; 10.7 µM in assay [4]; 4.77 µM in assay [5]; 3.45 µM in assay [6]. Also, the TGI in [7] amounted to 3.27 µM; in assay [8] it was 3.86 µM; in assay [9], 3.03 µM; in [10] it was 3.8 µM.
Take `Fc1ccc(-c2ncn(C3CCNCC3)c2-c2ccnc(Oc3ccc4c(c3)OCO4)n2)cc1`: the GI50 in [1] is 12.3 µM; in [2], 7.88 µM; in assay [3], 8.82 µM; in assay [4] it was 16.4 µM; in [5] it was more than 25 µM; in assay [6], 5.21 µM. Moreover, the GI50 in [7] is 15.3 µM; in assay [8] it was 10.5 µM; in assay [9], more than 16.1 µM; in [10] it was more than 20.9 µM. For the same molecule, the TGI in assay [1], in [2], in [3], in assay [4], in assay [5] and in assay [6] was more than 25 µM in each case. Besides, the TGI in assay [7], in assay [8], in [9] and in assay [10] was more than 25 µM throughout.
As for `CCCCCCCCCCCC1=NC(C)(C)CN1C(C)(C)CO`, the GI50 is 1.91 µM in assay [1]; 2.26 µM in assay [2]; 3.01 µM in assay [3]; 6.53 µM in [4]; 1.72 µM in [5]; 2.31 µM in assay [6]. Besides, the GI50 is 1.9 µM in assay [7], 1.65 µM in assay [8], 2.3 µM in assay [9] and 1.73 µM in [10]. Besides, the TGI in assay [1] came out at 3.79 µM; in assay [2], 4.48 µM; in [3], 10 µM; in assay [4], 19.6 µM; in [5], 3.14 µM; in [6] it was 7.49 µM. Besides, the TGI in assay [7] was determined as 4.77 µM; in assay [8], 3.28 µM; in [9] it was 7.12 µM; in assay [10] it was 4.37 µM.
`CCOC(=O)N1C/C(=C\c2ccccc2)C(=O)/C(=C/c2ccccc2)C1`: the TGI in [1] was 3.63 µM; in assay [2], 10.3 µM; in [3], 10.6 µM; in assay [4] it was 54.3 µM; in [5] it was 4.55 µM; in assay [6], 22.4 µM. Also, the TGI in assay [7] amounted to 7.43 µM; in assay [8], 12.5 µM; in assay [9], 22.4 µM; in assay [10], 4.51 µM.
Turning to `c1ccc(-c2nn3c(c2-c2ccnc4cc(OCCN5CCOCC5)ccc24)CCC3)nc1`, the GI50 in assay [1] was more than 45.6 µM; in assay [2] it was more than 100 µM; in [3] it was 36.3 µM; in assay [4] it was 43.8 µM; in [5] it was 59.4 µM; in assay [6], more than 68.9 µM. The GI50 in [7] was 97.3 µM; in [8], more than 100 µM; in [9] it was 59 µM; in assay [10], 45.6 µM. In addition, the TGI in [1], in assay [2], in [3], in assay [4], in assay [5] and in [6] was more than 100 µM each time. Also, the TGI in [7], in assay [8], in assay [9] and in [10] was more than 100 µM each time.
Regarding `COc1ccc2c(c1)[n+](=O)c(C(=O)c1cccs1)c(C(F)(F)F)n2[O-]`, the GI50 in [1] is 2.09 µM; in [2] it was more than 50 µM; in [3], 8.64 µM; in [4], 7.99 µM; in assay [5] it was 3.96 µM; in assay [6], 7.91 µM. Also, the GI50 in [7] was 10.3 µM; in assay [8], 8.66 µM; in assay [9] it was 9.11 µM; in assay [10], 2.87 µM. Besides, the TGI in assay [1] was 12.7 µM; in [2], more than 50 µM; in [3], more than 50 µM; in [4] it was more than 50 µM; in assay [5] it was 25.4 µM; in assay [6], 49.5 µM. Further, the TGI is more than 50 µM in [7], 42 µM in [8], more than 50 µM in assay [9] and 11.7 µM in [10].
Turning to `COC(C)(C)[C@@H](O)[C@H](O)C[C@H](C)C1=C2CC[C@@H]3[C@@]4(C)CC[C@@H](OC(C)=O)C(C)(C)[C@@H]4C[C@@H](OC4OC(COC(C)=O)C(O)C(O)C4O)[C@@]3(C)[C@]2(C)CC1` (some centres not stated), the GI50 in assay [1] is 6.36 µM; in assay [2], 6.96 µM; in assay [3] it was 10.4 µM; in assay [4] it was 7.77 µM; in assay [5], 3.55 µM; in assay [6], 13 µM. The GI50 is 12.6 µM in assay [8] and 4.1 µM in assay [10]. Also, the TGI in [1] was 19.6 µM; in assay [2], 19.5 µM; in assay [3] it was 22.2 µM; in [4] it was 20.3 µM; in assay [5], 18.9 µM; in assay [6] it was 25.8 µM. Further, the TGI is 22.5 µM in assay [7], 25.4 µM in assay [8], 21.2 µM in [9] and 14.8 µM in [10].
Regarding `C#C[C@]1(O)CC[C@H]2[C@@H]3CC=C4c5sc(Nc6cc(F)ccc6F)nc5CC[C@]4(C)[C@H]3CC[C@@]21C`, the GI50 in assay [1] is 1.49 µM; in assay [2], 0.213 µM; in [3], 1.44 µM; in assay [4], 2.51 µM; in [5], 1.97 µM; in assay [6] it was 2.06 µM. Moreover, the GI50 in assay [7] is 0.813 µM; in assay [8] it was 1.83 µM; in assay [9], 0.736 µM; in assay [10], 1.38 µM. Further, the TGI in assay [1] stood at 2.87 µM; in assay [2], 0.728 µM; in [3], 2.9 µM; in [4], 7.86 µM; in assay [5] it was 4.34 µM; in assay [6] it was 5.49 µM. Moreover, the TGI was 2.43 µM in [7], 4.31 µM in assay [8], 2.18 µM in assay [9] and 2.79 µM in [10].
